According to patent US8486940B2, “Inhibitors” (Probiodrug AG, priority 2009, dated 2013):

Target: hQC (Homo sapiens (Human), UniProt Q16769)
Experiment: QC inhibitor assay (fluorometric / spectrophotometric QC activity assays)
Type: biochemical
Description: Excitation/emission wavelengths were 320/410 nm.
This novel assay was used to determine the kinetic parameters for most of the QC substrates. […] Samples consisted of the respective QC substrate, 0.3 mM NADH, 14 mM α-Ketoglutaric acid and 30 U/ml glutamate dehydrogenase in a final volume of 250 μl. Reactions were started by addition of QC and persued by monitoring of the decrease in absorbance at 340 nm for 8-15 min.
All samples were measured at 30° C., using either the […]uor Plus or the Sunrise (both from TECAN) reader for microplates. Kinetic data was evaluated using GraFit software.
For inhibitor testing, the sample composition was the same as described above, except of the putative inhibitory compound added. For a rapid test of QC-inhibition, samples contained 4 mM of the respective inhibitor and a substrate concentration at 1 KM. For detailed investigations of the inhibition and determination of K,-values, influence of the inhibitor on the auxiliary enzymes was investigated first. […] The inhibitory constant was evaluated by fitting the set of progress curves to the general equation for competitive inhibition using GraFit software.

Chain of hQC (Q16769 29-361): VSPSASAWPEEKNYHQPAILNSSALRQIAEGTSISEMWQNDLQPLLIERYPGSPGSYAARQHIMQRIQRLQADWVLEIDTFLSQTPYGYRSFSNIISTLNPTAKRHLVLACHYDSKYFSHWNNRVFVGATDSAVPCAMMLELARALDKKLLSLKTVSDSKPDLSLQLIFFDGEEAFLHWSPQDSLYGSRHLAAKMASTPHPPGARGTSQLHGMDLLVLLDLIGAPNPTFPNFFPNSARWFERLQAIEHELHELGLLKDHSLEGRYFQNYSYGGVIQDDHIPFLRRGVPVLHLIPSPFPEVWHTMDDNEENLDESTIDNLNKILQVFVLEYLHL

| Compound | IC50 |
| --- | --- |
| COc1ccc(C2CNC(=O)N2c2ccc3[nH]cnc3c2)cc1 (centres unmarked) [Example 5, 1-(1H-benzo[d]imidazol-5-yl)-5-(4-methoxyphenyl)imidazolidin-2-one] | < 10 µM |
| O=C1NCC(c2ccc(N3CCCCC3)cc2)N1c1ccc2[nH]cnc2c1 (centres unmarked) [Example 175, 1-(1H-benzo[d]imidazol-5-yl)-5-(4-(piperidin-1-yl)phenyl)imidazolidin-2-one] | < 10 µM |
| CC(C)[C@H]1COC(=O)N1c1ccc2[nH]cnc2c1 [Example 68, (S)-3-(1H-benzo[d]imidazol-5-yl)-4-isopropyloxazolidin-2-one] | < 10 µM |
| O=C1NCC(c2ccccc2)N1c1ccc2[nH]cnc2c1 (centres unmarked) [Example 3, 1-(1H-benzo[d]imidazol-5-yl)-5-phenylimidazolidin-2-one] | < 10 µM |
| S=C1CSC(c2ccccc2)N1c1ccc2[nH]cnc2c1 (centres unmarked) [Example 118, 3-(1H-benzo[d]imidazol-5-yl)-2-phenylthiazolidine-4-thione] | < 10 µM |
| O=C1NCC(C2CCCCC2)N1c1ccc2[nH]cnc2c1 (centres unmarked) [Example 2, 1-(1H-benzo[d]imidazol-5-yl)-5-cyclohexylimidazolidin-2-one] | < 10 µM |
| COc1ccc(C2CCCN2c2ccc3[nH]cnc3c2)cc1 (centres unmarked) [Example 102, 5-(2-(4-methoxyphenyl)pyrrolidin-1-yl)-1H-benzo[d]imidazole] | < 10 µM |
| O=C1CSC(c2ccsc2)N1c1ccc2nc[nH]c2c1 (centres unmarked) [Example 116, 3-(1H-benzo[d]imidazol-6-yl)-2-(thiophen-3-yl)thiazolidin-4-one] | < 10 µM |
